Source: US12600714B2, “Substituted pyrazinecarboxamide compounds for treating diseases related to EGFR mutation” (WIGEN BIOMEDICINE TECHNOLOGY (SHANGHAI) CO., LTD., priority 2020, dated 2026)

What follows are compounds tested on A431 (EGFR WT) cells (assay: Antiproliferative activity against A431 (EGFR WT) cells, Cell Titer Glow). Settings: Homo sapiens, A-431, 72 h; three days after addition of compounds; read-out: Antiproliferative activity A431 wild-type (WT) IC50.
Format: cell-based
Procedure: (§1) Antiproliferative Activity of the Compounds Disclosed Herein Against Ba/F3 (EGFR^del19/T790M/C797S) Triple-Mutant Cells and A431 (EGFR WT) Cells
(§2) • 3000 Ba/F3 cells carrying EGFR (del19/T790M/C797S) or 2000 A431 cells were seeded in a 384-well plate. After one day, serially diluted compounds were added (up to 500 nM for Ba/F3 cells and up to 10 μM for A431 cells). Three days after the addition of the compounds, Cell Titer Glow was added to evaluate cell growth and the percentage cell growth inhibition by the compounds and the IC50 values were calculated.

Compound	IC50 [µM]
Cc1cnccc1-c1nc(C(N)=O)c(Nc2ccc(N3CCC(N4CCN(C)CC4)CC3)cc2)nc1NC1CCOCC1 [compound 74]	2.1

These compounds were tested on EGFR (del19/T790M/C797S) (assay: HTRF inhibitory activity assay against EGFR (del19/T790M/C797S) enzyme). Settings: not given.
Format: biochemical
Procedure: Inhibitory Activity Assay of the Compounds Disclosed Herein Against EGFR (del19/T790M/C797S), EGFR (L858R/T790M/C797S) or EGFR (WT) Enzymes
The inhibitory effects of the compounds against EGFR (del19/T790M/C797S), EGFR (L858R/T790M/C797S) or EGFR (WT) enzyme activity was determined by using HTRF. The procedures are as follows:
The WT or mutant EGFR proteins were incubated with a serially diluted compounds at 28° C. for 10 min followed by addition of biotin-labeled general tyrosine kinase (TK) substrate and ATP. The mixture was incubated at room temperature for 40 min for reaction. After the termination of the reaction, an Eu3+-Cryptate-labeled antibody against TK and streptavidin-XL665 were added and the mixture was incubated at room temperature for 60 min. The luminescences at 615 nm and 665 nm were detected and the ratio of 665/615 was calculated to quantify the level of TK substrate phosphorylation. Inhibition % and IC50 of the compounds were calculated relative to the control group.

Compound	EGFR (del19/T790M/C797S) inhibition (%) (0.3 nM compound)
CN1CCN(C2CCN(c3ccc(Nc4nc(NC5CC5)c(-c5cccc6[nH]ccc56)nc4C(N)=O)cc3F)CC2)CC1 [compound 531]	+++ (+++ indicates an inhibition greater than 50%.)
CN1CCN(C2CCN(c3ccc(Nc4nc(N[C@H]5C[C@H](O)C5)c(-c5cccc6[nH]ccc56)nc4C(N)=O)cc3F)CC2)CC1 [compound 534]	+++ (+++ indicates an inhibition greater than 50%.)
CN1CCN(C2CCN(c3ccc(Nc4nc(NCC(C)(C)O)c(-c5cccc6[nH]ccc56)nc4C(N)=O)cc3F)CC2)CC1 [compound 537]	+++ (+++ indicates an inhibition greater than 50%.)
CN1CCN(C2CCN(c3ccc(Nc4nc(NC5COC5)c(-c5cccc6[nH]ccc56)nc4C(N)=O)cc3F)CC2)CC1 [compound 595]	+++ (+++ indicates an inhibition greater than 50%.)
CN1CCN(C2CCN(c3ccc(Nc4nc(NC5COC5)c(-c5ccnc6[nH]ccc56)nc4C(N)=O)cc3)CC2)CC1 [compound 596]	+++ (+++ indicates an inhibition greater than 50%.)
CC(C)Nc1nc(Nc2ccc(N3CCC(N4CCN(C)CC4)CC3)cc2)c(C(N)=O)nc1-c1ccnc2[nH]ccc12 [compound 609]	+++ (+++ indicates an inhibition greater than 50%.)
CN1CCN(C2CCN(c3ccc(Nc4nc(NC5CC5)c(-c5ccnc6[nH]ccc56)nc4C(N)=O)cc3)CC2)CC1 [compound 610]	+++ (+++ indicates an inhibition greater than 50%.)
CN1CCN(C2CCN(c3ccc(Nc4nc(N[C@H]5C[C@@H](O)C5)c(-c5cc[nH]n5)nc4C(N)=O)cc3)CC2)CC1 [compound 614]	+++ (+++ indicates an inhibition greater than 50%.)
CN1CCN(C2CCN(c3ccc(Nc4nc(N[C@H]5C[C@H](O)C5)c(-c5cc[nH]n5)nc4C(N)=O)cc3)CC2)CC1 [compound 615]	+++ (+++ indicates an inhibition greater than 50%.)
CN1CCN(C2CCN(c3ccc(Nc4nc(NC5CCC(O)C5)c(-c5cc[nH]n5)nc4C(N)=O)cc3)CC2)CC1 (centres unmarked) [compound 617]	++ (++ indicates an inhibition from 20% to 50%)
CN1CCN(C2CCN(c3ccc(Nc4nc(NC5CCCC5O)c(-c5cc[nH]n5)nc4C(N)=O)cc3)CC2)CC1 (centres unmarked) [compound 618]	++ (++ indicates an inhibition from 20% to 50%)
CN1CCN(C2CCN(c3ccc(Nc4nc(NC5CCOCC5)c(-c5cc[nH]n5)nc4C(N)=O)cc3F)CC2)CC1 [compound 619]	++ (++ indicates an inhibition from 20% to 50%)
CN1CCN(C2CCN(c3ccc(Nc4nc(N[C@H]5C[C@@H](O)C5)c(-c5cc[nH]n5)nc4C(N)=O)cc3F)CC2)CC1 [compound 620]	++ (++ indicates an inhibition from 20% to 50%)
CN1CCN(C2CCN(c3ccc(Nc4nc(N[C@H]5C[C@H](O)C5)c(-c5cc[nH]n5)nc4C(N)=O)cc3F)CC2)CC1 [compound 621]	+++ (+++ indicates an inhibition greater than 50%.)
CC(C)Nc1nc(Nc2ccc(N3CCC(N4CCN(C)CC4)CC3)c(F)c2)c(C(N)=O)nc1-c1cc[nH]n1 [compound 622]	+++ (+++ indicates an inhibition greater than 50%.)
CN1CCN(C2CCN(c3ccc(Nc4nc(NC5CCC(O)C5)c(-c5cc[nH]n5)nc4C(N)=O)cc3F)CC2)CC1 (centres unmarked) [compound 623]	+++ (+++ indicates an inhibition greater than 50%.)
CN1CCN(C2CCN(c3ccc(Nc4nc(NC5CCCC5O)c(-c5cc[nH]n5)nc4C(N)=O)cc3F)CC2)CC1 (centres unmarked) [compound 624]	++ (++ indicates an inhibition from 20% to 50%)
CN1CCN(C2CCN(c3ccc(Nc4nc(NC5CC5)c(-c5cc[nH]n5)nc4C(N)=O)cc3)CC2)CC1 [compound 625]	+++ (+++ indicates an inhibition greater than 50%.)

Compound	EGFR (del19/T790M/C797S) inhibition (%) (0.3 nM compound)
CN1CCN(C2CCN(c3ccc(Nc4nc(NC5CC5)c(-c5cc[nH]n5)nc4C(N)=O)cc3F)CC2)CC1 [compound 626]	+++ (+++ indicates an inhibition greater than 50%.)
CN1CCN(C2CCN(c3ccc(Nc4nc(NC5CC6(COC6)C5)c(-c5cc[nH]n5)nc4C(N)=O)cc3)CC2)CC1 [compound 627]	++ (++ indicates an inhibition from 20% to 50%)
CN1CCN(C2CCN(c3ccc(Nc4nc(NC5CC6(COC6)C5)c(-c5cc[nH]n5)nc4C(N)=O)cc3F)CC2)CC1 [compound 628]	++ (++ indicates an inhibition from 20% to 50%)
CN1CCN(C2CCN(c3ccc(Nc4nc(NC5CC6(COC6)C5)c(-c5ccnc6[nH]ccc56)nc4C(N)=O)cc3)CC2)CC1 [compound 629]	+++ (+++ indicates an inhibition greater than 50%.)
CN1CCN(C2CCN(c3ccc(Nc4nc(NC5CC6(COC6)C5)c(-c5ccnc6[nH]ccc56)nc4C(N)=O)cc3F)CC2)CC1 [compound 630]	+++ (+++ indicates an inhibition greater than 50%.)
CN1CCN(C2CCN(c3ccc(Nc4nc(NC5CC5)c(-c5ccncc5)nc4C(N)=O)cc3)CC2)CC1 [compound 631]	+++ (+++ indicates an inhibition greater than 50%.)
CN1CCN(C2CCN(c3ccc(Nc4nc(NC5CC5)c(-c5ccncc5)nc4C(N)=O)cc3F)CC2)CC1 [compound 632]	+++ (+++ indicates an inhibition greater than 50%.)
CN1CCN(C2CCN(c3ccc(Nc4nc(NC5CC6(COC6)C5)c(-c5ccncc5)nc4C(N)=O)cc3)CC2)CC1 [compound 633]	+++ (+++ indicates an inhibition greater than 50%.)
CN1CCN(C2CCN(c3ccc(Nc4nc(NC5CC6(COC6)C5)c(-c5ccncc5)nc4C(N)=O)cc3F)CC2)CC1 [compound 634]	+++ (+++ indicates an inhibition greater than 50%.)
CC(C)Nc1nc(Nc2ccc(N3CCC(N4CCN(C)CC4)CC3)c(F)c2)c(C(N)=O)nc1-c1ccncc1 [compound 635]	+++ (+++ indicates an inhibition greater than 50%.)
CN1CCN(C2CCN(c3ccc(Nc4nc(NC5CCC5)c(-c5ccncc5)nc4C(N)=O)cc3)CC2)CC1 [compound 638]	+++ (+++ indicates an inhibition greater than 50%.)
CN1CCN(C2CCN(c3ccc(Nc4nc(NC5CCC5)c(-c5ccncc5)nc4C(N)=O)cc3F)CC2)CC1 [compound 639]	+++ (+++ indicates an inhibition greater than 50%.)
CN1CCN(C2CCN(c3ccc(Nc4nc(NC5CCCC5)c(-c5ccncc5)nc4C(N)=O)cc3)CC2)CC1 [compound 640]	+++ (+++ indicates an inhibition greater than 50%.)
CN1CCN(C2CCN(c3ccc(Nc4nc(NC5CCCC5)c(-c5ccncc5)nc4C(N)=O)cc3F)CC2)CC1 [compound 641]	+++ (+++ indicates an inhibition greater than 50%.)
CN1CCN(C2CCN(c3ccc(Nc4nc(N[C@@H]5CCOC5)c(-c5ccncc5)nc4C(N)=O)cc3)CC2)CC1 [compound 642]	+++ (+++ indicates an inhibition greater than 50%.)
CN1CCN(C2CCN(c3ccc(Nc4nc(N[C@@H]5CCOC5)c(-c5ccncc5)nc4C(N)=O)cc3F)CC2)CC1 [compound 643]	+++ (+++ indicates an inhibition greater than 50%.)
CN1CCN(C2CCN(c3ccc(Nc4nc(N[C@H]5CCOC5)c(-c5ccncc5)nc4C(N)=O)cc3)CC2)CC1 [compound 644]	+++ (+++ indicates an inhibition greater than 50%.)
CN1CCN(C2CCN(c3ccc(Nc4nc(N[C@H]5CCOC5)c(-c5ccncc5)nc4C(N)=O)cc3F)CC2)CC1 [compound 645]	+++ (+++ indicates an inhibition greater than 50%.)

What follows are compounds tested against Ba/F3 (EGFR^del19/T790M/C797S) triple-mutant cells (Homo sapiens, UniProt P00533, T790M/C797S, cells depend on it, form not given) (assay: Antiproliferative activity against Ba/F3 (EGFR del19/T790M/C797S) triple-mutant cells, Cell Titer Glow). Settings: three days after addition of compounds; read-out: Antiproliferative activity BaF3(EGFR^del19/T790M/C797S) IC50.
Ba/F3 (EGFR^del19/T790M/C797S) triple-mutant cells, sequence (P00533 with tags, fused parts or gaps DEL746-750/T790M/C797S, form open): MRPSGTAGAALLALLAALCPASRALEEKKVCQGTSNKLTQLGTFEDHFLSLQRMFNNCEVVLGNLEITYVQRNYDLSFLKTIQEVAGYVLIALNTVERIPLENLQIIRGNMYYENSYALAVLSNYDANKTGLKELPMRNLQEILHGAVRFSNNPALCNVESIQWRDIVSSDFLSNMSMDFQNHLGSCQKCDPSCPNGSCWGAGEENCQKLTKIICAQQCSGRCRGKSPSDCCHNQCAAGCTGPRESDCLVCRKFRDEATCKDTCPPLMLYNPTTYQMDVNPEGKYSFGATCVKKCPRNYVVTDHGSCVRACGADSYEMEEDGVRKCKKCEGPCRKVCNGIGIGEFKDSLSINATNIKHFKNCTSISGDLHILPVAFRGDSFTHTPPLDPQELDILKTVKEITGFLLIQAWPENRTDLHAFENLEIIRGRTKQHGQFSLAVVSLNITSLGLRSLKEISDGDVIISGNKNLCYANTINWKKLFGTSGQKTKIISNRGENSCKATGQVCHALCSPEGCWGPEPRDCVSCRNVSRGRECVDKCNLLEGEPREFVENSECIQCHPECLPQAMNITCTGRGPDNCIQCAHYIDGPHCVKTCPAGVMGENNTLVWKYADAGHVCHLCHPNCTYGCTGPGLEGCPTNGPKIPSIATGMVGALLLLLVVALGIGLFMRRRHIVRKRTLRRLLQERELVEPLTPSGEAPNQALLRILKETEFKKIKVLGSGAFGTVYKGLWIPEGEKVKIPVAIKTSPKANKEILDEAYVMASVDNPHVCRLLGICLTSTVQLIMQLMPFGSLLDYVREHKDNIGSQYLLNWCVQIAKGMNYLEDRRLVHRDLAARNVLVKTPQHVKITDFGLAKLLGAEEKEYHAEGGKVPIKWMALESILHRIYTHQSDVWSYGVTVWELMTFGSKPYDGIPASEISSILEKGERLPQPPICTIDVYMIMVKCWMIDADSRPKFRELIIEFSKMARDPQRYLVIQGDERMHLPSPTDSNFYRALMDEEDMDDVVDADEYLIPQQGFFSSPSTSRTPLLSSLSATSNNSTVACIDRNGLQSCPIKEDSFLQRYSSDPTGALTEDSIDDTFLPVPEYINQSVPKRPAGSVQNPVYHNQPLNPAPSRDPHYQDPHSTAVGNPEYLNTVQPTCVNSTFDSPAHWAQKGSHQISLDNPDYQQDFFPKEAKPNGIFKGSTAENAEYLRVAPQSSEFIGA
Format: cell-based
Procedure: as §1, §2

Compound	GI50 [µM]
Cc1cnccc1-c1nc(C(N)=O)c(Nc2ccc(N3CCC(N4CCN(C)CC4)CC3)cc2)nc1NC1CCOCC1 [compound 74]	> 0.1
